# In patent US12612525B2, “Amine compound, reactive coalescing agent, coating composition, coating layer and related methods” (Agency for Science, Technology and Research, priority 2020, dated 2026):
# Like-named read-outs stand apart in the source and are kept apart here.
# Experiments:
# [1] = Boiling point determination of ACAs; assay type: physicochemical
# Method: Amine based reactive coalescing agents were synthesized via an atom efficient aza-Michael addition reaction of secondary amine to different acrylate/acrylamide monomers such as 2-hydroxyethyl acrylate, 2-hydroxypropyl acrylate, 2-ethylhexyl acrylate, ^nbutyl acrylate, and N-hydroxyethyl acrylamide etc (Table 1 and Scheme 2). The reactions were carried out neat or in water (in some cases, in the presence of 10% ceric ammonium nitrate (CAN) catalyst) at room temperature (RT)-80° C. to yield 80% to 95% conversion. Finally, the ACAs were purified by column chromatography and characterized by ^1H-NMR and ^13C-NMR spectroscopy, and elemental microanalysis (as will be shown in Examples 3.1 to 3.5). Other characterizations include determination of boiling point, volatility (% wt loss when heated at 110±5° C. for 1 hour as per USA EPA 24 method), and plasticizing effect, i.e. reduction of minimum film formation temperature (MFFT) of commercial latices.
# Characterization studies were performed on the ACA examples to determine their boiling points and volatility (% wt loss when heated at 110±5° C. for 1 hour as per USA EPA 24 method).
# [2] = Stabilization of polymer on heating; details: IRS-129 heated at 100° C. for 4 days
# [3] = Accelerated release study: coalescing agent blended with latex IRS-129, film heated at 110° C., 1H NMR; details: 2 wt % in IRS-129 latex, dried 2 days at room temperature, powder heated at 110° C. in convection oven
# Method: At first, ACA4 (2 wt % with respect to latex) was first blended with IRS-129 latex (containing —COOH groups) using dispermat (LC75-E) and the mixture was allowed to dry at room temperature for 2 days. Then, the polymer film was grounded to make powder and then heated at 110° C. in a convection oven, i.e. accelerated evaporation (as illustrated in FIG. 6). Accelerated evaporation was used in this study instead as natural release is time consuming and gas analysis is difficult.
# Samples were collected time to time, dissolved in NMR solvent and analyzed by ^1H NMR spectroscopy (with 25 mg of sample, 0.8 mL of CDCl3, and 25 μL of DMF/CDCl3 as internal standard). High boiling commercial coalescing agent, 1-Phenoxy-2-propanol (PPH) (b.p. 243° C.) was used as control.
# [4] = Water solubility of ACAs (Table 1); assay type: physicochemical; details: in water
# [5] = commercial coalescing agent used as control; cited from earlier work
b.p. [1],Water Solubility [4] [%],Compound,Stabilisation of latex polymer against oxidation/coloration [2],Presence of coalescing agent in polymer film after heating (1H NMR) [3],b.p. [5] [°C]
251-254 °C,,C=C(C)C(=O)OCCOC(=O)CCN(Cc1ccccc1)Cc1ccccc1 [ACA15],,,
348-355 °C,,CCOCCOCCOC(=O)CCN(Cc1ccccc1)Cc1ccccc1 [ACA16],,,
292-297 °C,<0.06,O=C(CCN(Cc1ccccc1)Cc1ccccc1)OCCO [ACA4],helps to stabilise or reduce oxidation/coloration of the polymer,remain present even after 4 days of heating,
,,"CC(O)COc1ccccc1 (centres unmarked) [PPH, 1-Phenoxy-2-propanol, reference compound]",,completely evaporated out from the polymer after 2 days of heating,243
